This note sets out measurements from BindingDB's records for doi:10.7270/Q2KH0KWR (Burnham Center For Chemical Genomics, 2012).

The experiment addresses T1, Tyrosine-protein phosphatase non-receptor type 5 (Homo sapiens, UniProt P54829).
T1 sequence (P54829 whole entry): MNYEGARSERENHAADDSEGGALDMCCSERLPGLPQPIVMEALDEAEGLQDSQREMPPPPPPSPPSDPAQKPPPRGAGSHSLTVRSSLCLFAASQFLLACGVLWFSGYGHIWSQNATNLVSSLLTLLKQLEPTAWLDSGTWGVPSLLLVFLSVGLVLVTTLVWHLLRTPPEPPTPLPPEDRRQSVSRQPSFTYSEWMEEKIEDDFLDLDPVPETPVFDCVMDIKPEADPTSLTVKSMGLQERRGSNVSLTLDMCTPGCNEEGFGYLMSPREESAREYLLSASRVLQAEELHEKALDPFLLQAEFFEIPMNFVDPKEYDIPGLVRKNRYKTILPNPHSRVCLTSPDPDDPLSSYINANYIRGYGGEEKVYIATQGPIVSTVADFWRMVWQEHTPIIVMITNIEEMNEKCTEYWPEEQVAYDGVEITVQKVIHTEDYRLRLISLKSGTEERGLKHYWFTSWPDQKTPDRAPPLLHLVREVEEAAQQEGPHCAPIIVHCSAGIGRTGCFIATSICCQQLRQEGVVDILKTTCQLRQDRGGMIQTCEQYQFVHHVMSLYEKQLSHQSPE
Nature of the experiment: PTPN5 inhibition measured colorimetrically – biochemical, colorimetric absorbance, orthogonal assay for STEP inhibitor project, dose response (AID 624207).

Setting [1] is: inactive by the depositor's call.

With `O=[N+]([O-])c1ccc(O)c(Nc2ncnc3ccccc23)c1` [4-nitro-2-(4-quinazolinylamino)phenol], the IC50 is more than 80 µM.

Turning to `COc1ccccc1NS(=O)(=O)c1cc(NC(=O)c2sccc2C)ccc1N1CCCC1` [N-[3-[(2-methoxyphenyl)sulfamoyl]-4-(1-pyrrolidinyl)phenyl]-3-methyl-2-thiophenecarboxamide], half-maximal inhibition (IC50) was put at 6.95 µM.

As for `O=C(N/N=C/c1ccc(Cl)c([N+](=O)[O-])c1)c1ccc2c(c1)OCCO2` [MLS000587937], the IC50 was 15.7 µM.

With `CCN1CCN(C(=S)c2ccc(OCC(=O)NCc3ccccc3)cc2)CC1` [2-[4-(4-ethylpiperazin-1-yl)carbothioylphenoxy]-N-(phenylmethyl)ethanamide], the IC50 was more than 80 µM.

Molecule `Cc1ccc(-n2c(C)nc3oc4ccccc4c(=O)c3c2=O)cc1` [2-methyl-3-(4-methylphenyl)[1]benzopyrano[2,3-d]pyrimidine-4,5-dione] gave an IC50 under setting [1] of 76.5 µM.

With `COc1ccc(-c2ccc(NC(=O)c3ccc(Br)o3)cc2)nn1` [MLS001236653], the IC50 is more than 80 µM.

The molecule `COc1cc(C(=S)N2CCCCC2)ccc1O` [(4Z)-2-methoxy-4-[piperidin-1-yl(sulfanyl)methylidene]cyclohexa-2,5-dien-1-one] returned an IC50 of 15.5 µM.

Turning to `O=S(=O)(Nc1ccc(Cl)cc1)c1ccc(N2CCOCC2)c(NC(=S)NCCN2CCOCC2)c1`, the IC50 under setting [1] was 21.3 µM.

The molecule `O=C(N/N=C/c1ccc(Br)cc1)c1ccc(Br)o1` [5-bromanyl-N-[(E)-(4-bromophenyl)methylideneamino]furan-2-carboxamide] yielded an IC50 under setting [1] of 24.1 µM.

`CC(C(=O)Nc1ccc(O)cc1C(=O)O)N1C(=O)/C(=C\c2cccs2)SC1=S` (stereo unspecified) [MLS001157883] registered an IC50 of 15.7 µM.

In the case of `Cc1c(CCC(=O)O)c(=O)oc2c(C)c(OCc3cc4c(cc3Cl)OCO4)ccc12` [3-[7-[(6-chloranyl-1,3-benzodioxol-5-yl)methoxy]-4,8-dimethyl-2-oxidanylidene-chromen-3-yl]propanoic acid], the IC50 was more than 80 µM.

For orientation: IC50 means the concentration that gives 50% inhibition.
